Values after ≈ are worked out from the molar mass of the structure shown. Read-outs that look alike come from different tables or passages of the source.
Tested on: C. albicans isolates
Experiment: Broth microdilution susceptibility (CLSI M27-A3) at different medium pH
Assay type: cell-based, Candida albicans
Settings: Candida albicans, 24 h; for MIC50: read-out: MIC50; for MIC90: read-out: MIC90
Description: Ten strains each of C. glabrata and C. albicans vaginal isolates were tested. The strains were obtained from recent clinical trial patients with vulvovaginal candidiasis (VVC) prior to treatment. Candida strains were obtained from the Mycology Reference Library (MRL) at Case Western Reserve University School of Medicine, Ohio, United States.
Susceptibility testing was performed using a broth microdilution method, according to CLSI M27-A3 guidelines (CLSI. 2008. Reference Method for Broth Dilution Antifungal Susceptibility Testing of Yeasts; Approved Standard—Third Edition. Clinical and Laboratory Standards Institute, CLSI document M27-A3). Antifungals and concentrations tested were SCY-078 and micafungin (both at concentrations within the range of 0.015 to 8 μg/ml) and fluconazole (at concentrations within the range of 0.125 to 64 μg/ml). A 0.1-ml C. albicans and C. glabrata inoculum of 0.5-2.5×10^3 blastospores/ml in RPMI 1640 medium was added to each microdilution well. ATCC strains of Candida parapsilosis and Candida krusei QC isolates were also included concurrently to ensure quality control. Antifungal susceptibility testing was carried out for each isolate in RPMI 1640 at pH 7 (to mimic RPMI medium used in testing the susceptibility of yeast by the CLSI M-27A3 document), pH 5.7, and pH 4.5 (to mimic the pH of the vaginal cavity) by adjusting the pH of the media using NaOH or HCl. […] Agents Chemother., 43: 1383-1386 (1999).
[…] SCY-078 powder was manufactured by Avista, Laboratories, NC. Micafungin and fluconazole were sourced from LGM Pharma.

[1] = pH 7, 50% inhibition, pH 7.0, 24 h, 10 vaginal isolates
[2] = pH 7, 100% inhibition, pH 7.0, 24 hours, 10 isolates

CC(C)[C@@H](C)[C@@]1(C)CC[C@]2(C)[C@H]3CC[C@@H]4[C@@]5(COC[C@]4(C)[C@@H](OC[C@](C)(N)C(C)(C)C)[C@H](n4ncnc4-c4ccncc4)C5)C3=CC[C@@]2(C)[C@@H]1C(=O)O [SCY-078]
MIC (pH 5.72, C. albicans MRL 34367, pH 5.72, 24 hours, read-out: MIC (100% inhibition)): 0.5 µg/mL (≈ 0.685 µM)
MIC (pH 5.72, C. albicans MRL 34372, pH 5.72, 24 hours, read-out: MIC (50% inhibition)): 0.25 µg/mL (≈ 0.342 µM)
MIC (pH 5.72, C. albicans MRL 34372, pH 5.72, 24 hours, read-out: MIC (100% inhibition)): 0.25 µg/mL (≈ 0.342 µM)
MIC (pH 5.72, C. albicans MRL 34373, pH 5.72, 24 hours, read-out: MIC (50% inhibition)): 0.25 µg/mL (≈ 0.342 µM)
MIC (pH 5.72, C. albicans MRL 34373, pH 5.72, 24 hours, read-out: MIC (100% inhibition)): 0.25 µg/mL (≈ 0.342 µM)
MIC (pH 5.72, C. albicans MRL 34374, pH 5.72, 24 hours, read-out: MIC (50% inhibition)): 0.125 µg/mL (≈ 0.171 µM)
MIC (pH 5.72, C. albicans MRL 34374, pH 5.72, 24 hours, read-out: MIC (100% inhibition)): 0.25 µg/mL (≈ 0.342 µM)
MIC (pH 5.72, C. albicans MRL 34385, pH 5.72, 24 hours, read-out: MIC (50% inhibition)): 0.25 µg/mL (≈ 0.342 µM)
MIC (pH 5.72, C. albicans MRL 34385, pH 5.72, 24 hours, read-out: MIC (100% inhibition)): 0.5 µg/mL (≈ 0.685 µM)
MIC (pH 5.72, C. albicans MRL 34389, pH 5.72, 24 hours, read-out: MIC (50% inhibition)): 0.25 µg/mL (≈ 0.342 µM)
MIC (pH 5.72, C. albicans MRL 34389, pH 5.72, 24 hours, read-out: MIC (100% inhibition)): 0.25 µg/mL (≈ 0.342 µM)
MIC (pH 5.72, C. albicans MRL 34399, pH 5.72, 24 hours, read-out: MIC (50% inhibition)): 0.25 µg/mL (≈ 0.342 µM)
MIC (pH 5.72, C. albicans MRL 34399, pH 5.72, 24 hours, read-out: MIC (100% inhibition)): 0.25 µg/mL (≈ 0.342 µM)
MIC (pH 5.72, C. albicans MRL 34408, pH 5.72, 24 hours, read-out: MIC (50% inhibition)): 0.25 µg/mL (≈ 0.342 µM)
MIC (pH 5.72, C. albicans MRL 34408, pH 5.72, 24 hours, read-out: MIC (100% inhibition)): 2 µg/mL (≈ 2.74 µM)
MIC (pH 5.72, C. albicans MRL 34449, pH 5.72, 24 hours, read-out: MIC (50% inhibition)): 0.25 µg/mL (≈ 0.342 µM)
MIC (pH 5.72, C. albicans MRL 34449, pH 5.72, 24 hours, read-out: MIC (100% inhibition)): 0.25 µg/mL (≈ 0.342 µM)
MIC50 [1]: 0.25 µg/mL (≈ 0.342 µM)
MIC90 [1]: 0.5 µg/mL (≈ 0.685 µM)
MIC50 [2]: 0.25 µg/mL (≈ 0.342 µM)
MIC90 [2]: 0.5 µg/mL (≈ 0.685 µM)
MIC (pH 7, C. albicans MRL 34366, pH 7.0, 24 hours, read-out: MIC (50% inhibition)): 0.5 µg/mL (≈ 0.685 µM)
MIC (pH 7, C. albicans MRL 34366, pH 7.0, 24 hours, read-out: MIC (100% inhibition)): 0.5 µg/mL (≈ 0.685 µM)
MIC (pH 7, C. albicans MRL 34367, pH 7.0, 24 hours, read-out: MIC (50% inhibition)): 0.125 µg/mL (≈ 0.171 µM)
MIC (pH 7, C. albicans MRL 34367, pH 7.0, 24 hours, read-out: MIC (100% inhibition)): 0.5 µg/mL (≈ 0.685 µM)
MIC (pH 7, C. albicans MRL 34372, pH 7.0, 24 hours, read-out: MIC (50% inhibition)): 0.25 µg/mL (≈ 0.342 µM)
MIC (pH 7, C. albicans MRL 34372, pH 7.0, 24 hours, read-out: MIC (100% inhibition)): 0.25 µg/mL (≈ 0.342 µM)
MIC (pH 7, C. albicans MRL 34373, pH 7.0, 24 hours, read-out: MIC (50% inhibition)): 0.25 µg/mL (≈ 0.342 µM)
MIC (pH 7, C. albicans MRL 34373, pH 7.0, 24 hours, read-out: MIC (100% inhibition)): 0.25 µg/mL (≈ 0.342 µM)
MIC (pH 7, C. albicans MRL 34374, pH 7.0, 24 hours, read-out: MIC (50% inhibition)): 0.25 µg/mL (≈ 0.342 µM)
MIC (pH 7, C. albicans MRL 34374, pH 7.0, 24 hours, read-out: MIC (100% inhibition)): 0.25 µg/mL (≈ 0.342 µM)
MIC (pH 7, C. albicans MRL 34385, pH 7.0, 24 hours, read-out: MIC (50% inhibition)): 0.25 µg/mL (≈ 0.342 µM)
MIC (pH 7, C. albicans MRL 34385, pH 7.0, 24 hours, read-out: MIC (100% inhibition)): 0.5 µg/mL (≈ 0.685 µM)
MIC (pH 7, C. albicans MRL 34389, pH 7.0, 24 hours, read-out: MIC (50% inhibition)): 0.125 µg/mL (≈ 0.171 µM)
MIC (pH 7, C. albicans MRL 34389, pH 7.0, 24 hours, read-out: MIC (100% inhibition)): 0.25 µg/mL (≈ 0.342 µM)
MIC (pH 7, C. albicans MRL 34399, pH 7.0, 24 hours, read-out: MIC (50% inhibition)): 0.25 µg/mL (≈ 0.342 µM)
MIC (pH 7, C. albicans MRL 34399, pH 7.0, 24 hours, read-out: MIC (100% inhibition)): 0.25 µg/mL (≈ 0.342 µM)
MIC (pH 7, C. albicans MRL 34408, pH 7.0, 24 hours, read-out: MIC (50% inhibition)): 0.5 µg/mL (≈ 0.685 µM)
MIC (pH 7, C. albicans MRL 34408, pH 7.0, 24 hours, read-out: MIC (100% inhibition)): 4 µg/mL (≈ 5.48 µM)
MIC (pH 7, C. albicans MRL 34449, pH 7.0, 24 hours, read-out: MIC (50% inhibition)): 0.25 µg/mL (≈ 0.342 µM)
